Data published in publication PMC10401666 (RSC Advances, 2023).
Where two headings read alike, the source gives them in different places. Blank lines part the entries; values can stand above or below the molecule they belong to.

Experiments:
BAX = BAX level in MCF-7 cells; assay type: cell-based, human; settings: MCF-7, 10.17 μM
Bcl-2 = Bcl-2 level in MCF-7 cells; assay type: cell-based, human; settings: MCF-7, 10.17 μM
TNF-α = TNF-α level in MCF-7 cells; assay type: cell-based, human
IL6 = IL6 level in MCF-7 cells; assay type: cell-based, human
caspase-9 = experiment: Caspase-9 level in MCF-7 cells; assay type: cell-based, human; settings: MCF-7, 10.17 μM
MCF-7 cells [1] = experiment: Cell cycle analysis by flow cytometry; assay type: cell-based, human; settings: MCF-7, 10.17 μM, 72 h
HepG2 = experiment: MTT anti-proliferative assay, HepG2; assay type: cell-based, human; settings: mean of three experiments
caspase-8 = experiment: Caspase-8 level in MCF-7 cells; assay type: cell-based, human; settings: MCF-7, 10.17 μM
MCF-7 = experiment: MTT anti-proliferative assay, MCF-7; assay type: cell-based; settings: Homo sapiens, MCF7, read-out: IC50 MCF-7
MCF-7 cells [2] = experiment: Apoptosis assay, annexin V / PI flow cytometry; assay type: cell-based, human; settings: MCF-7, 10.17 μM, 72 h
VEGFR-2 = VEGFR-2 (Homo sapiens, UniProt P35968); experiment: biochemical
[3] = Homo sapiens, HepG2, read-out: IC50 HepG2, MTT assay

Sequence of VEGFR-2 (P35968 20-1356): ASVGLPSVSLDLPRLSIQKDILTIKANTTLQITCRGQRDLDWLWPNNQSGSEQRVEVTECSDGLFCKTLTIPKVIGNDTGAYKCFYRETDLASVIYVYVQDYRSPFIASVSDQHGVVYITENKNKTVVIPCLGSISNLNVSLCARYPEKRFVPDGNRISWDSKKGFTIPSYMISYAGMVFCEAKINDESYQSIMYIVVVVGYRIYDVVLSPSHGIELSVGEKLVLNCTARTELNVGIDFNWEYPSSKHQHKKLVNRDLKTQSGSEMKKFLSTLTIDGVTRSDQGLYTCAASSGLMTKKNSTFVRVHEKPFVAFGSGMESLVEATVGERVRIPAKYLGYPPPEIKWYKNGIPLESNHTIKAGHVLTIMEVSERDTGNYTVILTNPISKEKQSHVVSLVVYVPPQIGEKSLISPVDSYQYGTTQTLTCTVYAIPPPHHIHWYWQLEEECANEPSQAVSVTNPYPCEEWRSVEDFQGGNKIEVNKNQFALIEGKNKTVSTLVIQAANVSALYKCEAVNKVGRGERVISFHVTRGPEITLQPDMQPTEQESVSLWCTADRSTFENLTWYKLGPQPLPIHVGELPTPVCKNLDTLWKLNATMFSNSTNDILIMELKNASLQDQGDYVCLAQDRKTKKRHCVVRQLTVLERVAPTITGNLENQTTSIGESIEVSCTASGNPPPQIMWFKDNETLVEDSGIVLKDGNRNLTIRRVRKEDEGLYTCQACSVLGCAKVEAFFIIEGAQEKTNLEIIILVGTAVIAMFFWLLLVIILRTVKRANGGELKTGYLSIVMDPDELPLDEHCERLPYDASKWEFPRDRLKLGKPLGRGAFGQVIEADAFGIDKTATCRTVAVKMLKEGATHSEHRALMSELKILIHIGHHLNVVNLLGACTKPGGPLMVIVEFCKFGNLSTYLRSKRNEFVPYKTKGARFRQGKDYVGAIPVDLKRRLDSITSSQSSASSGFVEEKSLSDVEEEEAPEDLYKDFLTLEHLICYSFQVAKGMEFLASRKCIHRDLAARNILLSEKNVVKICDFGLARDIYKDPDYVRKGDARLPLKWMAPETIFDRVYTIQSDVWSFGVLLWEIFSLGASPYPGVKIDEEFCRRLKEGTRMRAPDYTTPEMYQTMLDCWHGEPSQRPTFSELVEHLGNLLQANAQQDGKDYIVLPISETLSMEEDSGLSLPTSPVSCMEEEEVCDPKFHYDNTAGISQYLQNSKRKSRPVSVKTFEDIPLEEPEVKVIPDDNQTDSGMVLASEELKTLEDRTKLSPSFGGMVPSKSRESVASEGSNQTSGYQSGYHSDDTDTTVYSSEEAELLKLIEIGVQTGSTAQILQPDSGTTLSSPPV

SMILES: O=C(CSc1nnc(Cn2cnc3sc4c(c3c2=O)CCCC4)o1)N1CCCCC1 [Compound 18, 3-((5-((2-Oxo-2-(piperidin-1-yl)ethyl)thio)-1,3,4-oxadiazol-2-yl)methyl)-5,6,7,8-tetrahydrobenzo[4,5]thieno[2,3-d]pyrimidin-4(3H)-one]
BAX level increase vs control (BAX): 3.6 fold
Protein expression BAX (BAX; control = 1): 3.669
Bcl-2 level decrease vs control (Bcl-2): 3.1 fold
Protein expression Bcl-2 (Bcl-2; control = 1): 0.315
TNF-α level lower than control (TNF-α): 2.9 times
TNF-α level (TNF-α; control = 1): 0.335
IL6 level lower than control (IL6): 2.5 times
IL6 level (IL6; control = 1): 0.393
Caspase-9 level increase vs control (caspase-9): 5.4 fold
Protein expression Caspase-9 (caspase-9; control = 1): 5.422
Cell cycle distribution (%) % G2/M (MCF-7 cells [1]): 15.4%
Cell cycle distribution (%) %G0–G1 (MCF-7 cells [1]): 56.46%
Cell cycle distribution (%) %S (MCF-7 cells [1]): 28.14%
IC50 (HepG2; [3]): 24.5 µM
IC50 (HepG2; read-out: IC50 HepG2, MTT assay): 24.3 ± 2.08 µM
Caspase-8 level increase vs control (caspase-8): 2.6 fold
Protein expression Caspase-8 (caspase-8; control = 1): 2.607
IC50 (MCF-7): 10.2 ± 1.01 µM
Apoptosis induced (early + late) (MCF-7 cells [2]): 23.35%
Early apoptosis (MCF-7 cells [2]): 15.96%
Late apoptosis (MCF-7 cells [2]): 7.39%
Necrosis (MCF-7 cells [2]): 2.41
Total (cell death) (MCF-7 cells [2]): 25.76

SMILES: O=C(CSc1nnc(Cn2cnc3sc4c(c3c2=O)CCCC4)o1)Nc1c([N+](=O)[O-])cccc1[N+](=O)[O-] [Compound 19, N-(2,6-Dinitrophenyl)-2-((5-((4-oxo-5,6,7,8-tetrahydrobenzo[4,5]thieno[2,3-d]pyrimidin-3(4H)-yl)methyl)-1,3,4-oxadiazol-2-yl)thio)acetamide]
IC50 (HepG2; [3]): 31.8 ± 1.15 µM
IC50 (VEGFR-2): 0.29 ± 0.007 µM
IC50 (MCF-7): 16.5 ± 1.16 µM

SMILES: O=C(CSc1nnc(Cn2cnc3sc4c(c3c2=O)CCCC4)o1)Nc1ccc(Cl)cn1 [Compound 20, N-(5-Chloropyridin-2-yl)-2-((5-((4-oxo-5,6,7,8-tetrahydrobenzo[4,5]thieno[2,3-d]pyrimidin-3(4H)-yl)methyl)-1,3,4-oxadiazol-2-yl)thio)acetamide]
IC50 (HepG2; [3]): 4.84 ± 0.38 µM
IC50 (MCF-7): 5.38 ± 0.45 µM

SMILES: O=C(CSc1nnc(Cn2cnc3sc4c(c3c2=O)CCCC4)o1)Nc1nccs1 [Compound 21, 2-((5-((4-Oxo-5,6,7,8-tetrahydrobenzo[4,5]thieno[2,3-d]pyrimidin-3(4H)-yl)methyl)-1,3,4-oxadiazol-2-yl)thio)-N-(thiazol-2-yl)acetamide]
IC50 (HepG2; [3]): 11.8 ± 1.05 µM
IC50 (VEGFR-2): 0.42 ± 0.008 µM
IC50 (MCF-7): 6.31 ± 0.16 µM

Further lines, results first:

IC50 (HepG2; [3]): 5.51 ± 0.25 µM
IC50 (MCF-7): 5.73 ± 0.18 µM
SMILES: O=C(CSc1nnc(Cn2cnc3sc4c(c3c2=O)CCCC4)o1)Nc1nc2ccccc2s1 [Compound 22, N-(Benzo[d]thiazol-2-yl)-2-((5-((4-oxo-5,6,7,8-tetrahydrobenzo[4,5]thieno[2,3-d]pyrimidin-3(4H)-yl)methyl)-1,3,4-oxadiazol-2-yl)thio)acetamide]

IC50 (HepG2; [3]): 13.3 ± 0.3 µM
IC50 (MCF-7): 9.98 ± 0.6 µM
SMILES: CNC(=O)c1cc(Oc2ccc(NC(=O)Nc3ccc(Cl)c(C(F)(F)F)c3)cc2)ccn1 [Sorafenib, reference compound]
